According to patent US20230374030A1, “SOLID-STATE FORMS OF RELUGOLIX” (MACFARLAN SMITH LIMITED, priority 2019, published 2023):

Key:
Assay type in all cases: physicochemical
[1] = Solid-state stability under humidity (storage at high humidity; XRPD after DVS); conditions: for stability at various humidity levels: XRPD analysis after DVS
[2] = Dynamic vapor sorption (DVS); conditions: for weight loss in DVS: relative humidity about 0 to 95%
Procedure: DVS samples are analyzed using a TA Instruments Q5000SA gravimetric water sorption analyzer. The relative humidity is adjusted between about 0-95% and the weight of the sample is continuously monitored and recorded with respect to the relative humidity and time.

[3] = Solid-state stability on drying under vacuum
Procedure: Form A of the DMF solvate of relugolix is stable, i.e., it is unchanged after prolonged drying (e.g., about 2 days) under vacuum at about 70° C.

Row | stability at various humidity levels [1] | weight loss in DVS [2] | XRPD changes after drying ([3]; about 18 hours at about 30° C. under vacuum) | stability under humidity ([1]; about 97% humidity, ambient temperatures, over a month) | loss of mass in DVS ([2]; at about 90% RH) | stability after prolonged drying ([3]; about 2 days under vacuum at about 70° C.) | water absorption in DVS (and secretion of it all) ([2]; relative humidity about 0 to about 95%) | SMILES
1 | remains stable | about 2% | no changes |  |  |  |  | CONC(=O)Nc1ccc(-c2sc3c(c2CN(C)C)c(=O)n(-c2ccc(OC)nn2)c(=O)n3Cc2c(F)cccc2F)cc1 [Form A of anhydrous relugolix, 1-[4-[1-[(2,6-difluorophenyl)-methyl]-5-[(dimethylamino)methyl]-3-(6-methoxypyridazin-3-yl)-2,4-dioxothieno-[2,3-d]pyrimidin-6-yl]phenyl]-3-methoxyurea]
2 |  |  |  | remains unchanged | about 1% | unchanged |  | CONC(=O)Nc1ccc(-c2sc3c(c2CN(C)C)c(=O)n(-c2ccc(OC)nn2)c(=O)n3Cc2c(F)cccc2F)cc1 [Form A of the DMF solvate of relugolix, 1-[4-[1-[(2,6-difluorophenyl)-methyl]-5-[(dimethylamino)methyl]-3-(6-methoxypyridazin-3-yl)-2,4-dioxothieno-[2,3-d]pyrimidin-6-yl]phenyl]-3-methoxyurea]
3 | remains stable | about 7% |  |  |  |  |  | CONC(=O)Nc1ccc(-c2sc3c(c2CN(C)C)c(=O)n(-c2ccc(OC)nn2)c(=O)n3Cc2c(F)cccc2F)cc1 [Form B of anhydrous relugolix, 1-[4-[1-[(2,6-difluorophenyl)-methyl]-5-[(dimethylamino)methyl]-3-(6-methoxypyridazin-3-yl)-2,4-dioxothieno-[2,3-d]pyrimidin-6-yl]phenyl]-3-methoxyurea]
4 | remains stable |  |  |  |  |  | ~2% | CONC(=O)Nc1ccc(-c2sc3c(c2CN(C)C)c(=O)n(-c2ccc(OC)nn2)c(=O)n3Cc2c(F)cccc2F)cc1 [Form C of anhydrous relugolix, 1-[4-[1-[(2,6-difluorophenyl)-methyl]-5-[(dimethylamino)methyl]-3-(6-methoxypyridazin-3-yl)-2,4-dioxothieno-[2,3-d]pyrimidin-6-yl]phenyl]-3-methoxyurea]
